Assays:
[1] = biological target: sucrase (Homo sapiens, UniProt P14410); details: sucrose-decomposing enzyme in the small intestine; cited from earlier work
[2] = system: mice; details: 30 to 120 minutes after loading with sucrose; cited from earlier work
[3] = system: model mice for non-insulin-depending diabetes mellitus (KK-A^y); experiment: Blood-sugar level of KK-A^y diabetic model mice fed test feed for 30 days; type: in vivo; details: group D, feed D (2.5% L-arabinose, no sucrose) ad libitum, FIG. 2
Protocol: Twenty model mice for non-insulin-depending diabetes mellitus showing hyperglycemia (260˜270 mg/liter) (KK-A^y, male, 8 weeks age, Nippon Clair) were preliminarily raised for one week, divided into two groups (group A and group B) and used for the test. Each of the mice was placed in a plastic cage separately and raised by keeping at 23±1° C. under a 12-hour bright-and-dark cycle (bright environment from 7 a.m. to 7 p.m. and dark environment from 7 p.m. to 7 a.m. of the next day) where feed and water were freely taken by the mice. Blood-sugar level (concentration of glucose in blood) was measured by a glucose oxidase method after collecting the blood from the venous plexus of the eyeground at 9 a.m.
The feed A mentioned in Table 1 (a feed containing α-corn starch, sucrose, and cellulose as carbohydrate sources but containing no L-arabinose) was given to the mice of group A while the feed B mentioned in Table 1 (a feed containing α-com starch, sucrose, and cellulose as carbohydrate sources and also containing L-arabinose) was given to the mice of group B and the study was carried out for 30 days. […]

Sequence of sucrase (P14410 whole entry, species assumed): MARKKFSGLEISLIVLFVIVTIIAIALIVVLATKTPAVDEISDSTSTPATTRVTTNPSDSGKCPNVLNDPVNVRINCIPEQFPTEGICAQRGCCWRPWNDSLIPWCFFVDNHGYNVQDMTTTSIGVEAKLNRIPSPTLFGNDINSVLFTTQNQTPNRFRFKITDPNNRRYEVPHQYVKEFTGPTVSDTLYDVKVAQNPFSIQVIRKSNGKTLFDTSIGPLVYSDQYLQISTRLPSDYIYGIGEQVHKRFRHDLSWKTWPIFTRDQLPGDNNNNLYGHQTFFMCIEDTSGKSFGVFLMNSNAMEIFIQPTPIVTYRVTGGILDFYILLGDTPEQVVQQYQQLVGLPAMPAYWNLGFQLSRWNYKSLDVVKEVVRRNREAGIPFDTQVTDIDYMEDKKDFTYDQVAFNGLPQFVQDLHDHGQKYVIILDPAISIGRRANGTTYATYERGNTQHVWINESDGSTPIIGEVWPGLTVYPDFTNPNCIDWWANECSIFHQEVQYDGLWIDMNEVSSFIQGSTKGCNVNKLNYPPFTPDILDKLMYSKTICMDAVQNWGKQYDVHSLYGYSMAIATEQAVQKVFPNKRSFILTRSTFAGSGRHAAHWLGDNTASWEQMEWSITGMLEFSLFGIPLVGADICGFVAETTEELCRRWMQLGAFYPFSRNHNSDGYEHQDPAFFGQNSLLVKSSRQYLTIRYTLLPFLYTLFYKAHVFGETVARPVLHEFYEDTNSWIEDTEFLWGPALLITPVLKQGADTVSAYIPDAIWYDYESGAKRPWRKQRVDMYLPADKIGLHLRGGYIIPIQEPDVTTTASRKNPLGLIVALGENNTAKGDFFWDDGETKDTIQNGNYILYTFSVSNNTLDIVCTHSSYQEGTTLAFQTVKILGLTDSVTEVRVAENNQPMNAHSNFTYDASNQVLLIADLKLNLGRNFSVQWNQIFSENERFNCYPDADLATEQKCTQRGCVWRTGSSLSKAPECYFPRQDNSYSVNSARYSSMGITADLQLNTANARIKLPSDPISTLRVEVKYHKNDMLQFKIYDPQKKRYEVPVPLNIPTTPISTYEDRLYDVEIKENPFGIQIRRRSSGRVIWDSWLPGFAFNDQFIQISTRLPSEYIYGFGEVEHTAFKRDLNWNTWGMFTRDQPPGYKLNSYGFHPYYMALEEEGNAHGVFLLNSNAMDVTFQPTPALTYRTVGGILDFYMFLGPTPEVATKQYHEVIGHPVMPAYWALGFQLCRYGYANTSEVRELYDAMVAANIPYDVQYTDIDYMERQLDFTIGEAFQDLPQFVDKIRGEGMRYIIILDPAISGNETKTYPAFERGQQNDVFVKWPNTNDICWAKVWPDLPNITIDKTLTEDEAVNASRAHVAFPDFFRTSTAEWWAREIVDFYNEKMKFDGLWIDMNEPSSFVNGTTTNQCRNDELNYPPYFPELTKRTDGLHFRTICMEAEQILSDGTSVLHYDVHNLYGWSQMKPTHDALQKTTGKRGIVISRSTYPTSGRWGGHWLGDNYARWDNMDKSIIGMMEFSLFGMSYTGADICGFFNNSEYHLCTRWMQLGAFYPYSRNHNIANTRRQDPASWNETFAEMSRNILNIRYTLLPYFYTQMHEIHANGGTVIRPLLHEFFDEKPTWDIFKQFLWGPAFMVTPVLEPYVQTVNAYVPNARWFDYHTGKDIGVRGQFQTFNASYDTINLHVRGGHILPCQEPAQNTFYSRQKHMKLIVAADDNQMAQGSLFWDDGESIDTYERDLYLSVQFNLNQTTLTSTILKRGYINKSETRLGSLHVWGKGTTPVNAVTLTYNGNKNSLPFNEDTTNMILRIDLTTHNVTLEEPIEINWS

## O=C[C@H](O)[C@@H](O)[C@@H](O)CO [L-arabinose]
[1]
  action on sucrase: inhibition of sucrase
[2]
  rise of blood-sugar level after loading with sucrose: suppressing the rise of blood-sugar level
[3]
  change in blood-sugar level, L-arabinose without sucrose: no decrease in blood-sugar level takes place

— patent US20040038910A1, “Remedy for diabetes mellitus” (priority 2000, published 2004)
